Data from patent US20250332173A1, “COMPOUNDS AND METHODS FOR MODULATING NUCLEIC ACID SPLICING” (REMIX THERAPEUTICS INC., priority 2021, published 2025).
Where two headings read alike, the source gives them in different places.

Experiments:
HTT mRNA = assay: RT-qPCR splicing assay, HTT canonical junction (CJ) and alternative junction (AJ) mRNA; assay type: cell-based, human; conditions: Homo sapiens
Method in brief: (§1)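 Splicing switches were read by TaqMan RT-qPCR on lysates, quantifying exon-exon junctions of the canonical and alternative-exon isoforms. Lysates came from K562 (GAPDH/GUSB reference) or A673 (PPIA reference) cells exposed 24 h to compound in 11 threefold steps from 10 uM, with DMSO ≤0.25%.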

Target C [1] = assay: HiBiT protein abundance assay, Target C (Promega Nano-Glo HiBiT Lytic Detection System, knock-in K562 cell line); assay type: cell-based, human; conditions: Homo sapiens, K562, 24 h, read-out: Effect on protein abundance, Target C (IC50 category)
Procedure: (§2) • Promega Nano-Glo HiBiT Lytic Detection System (cat #N3030) • Corning 384-well TC-treated microplates (cat #3570) • Synthego Engineered Cells Knock-In Clones
(§3) Cells were maintained in IMDM with 10% FBS. Before the assay, cells were diluted with […] growth media (IMDM+[…] media) and were seeded in a 384-well plate at a density of 10,000 cells/well (for each cell line listed in Table 5). Each compound was prepared as a 10-point 3-fold serial dilution in DMSO with the top dose at a final concentration of 10 μM in the well. Unmodified K562 cells were added at the previously specified density with DMSO to serve as an assay baseline and positive control (PC) and DMSO only with the respective modified cell lines was added to the negative control (NC) columns. Final DMSO concentration was kept at or below 0.25%. Treated cell plates were placed in an incubator at 37° C. with […] for 24 hours. After 24 hours, 25 μL of Complete HiBit Lytic reagent was added to each well at room temperature (e.g. one plate requiring 10 mL Lytic Buffer, 100 μL LgBiT Protein, 200 μL Lytic Substrate), shaken for 5 minutes at 600 RPM, then left to sit for 10 minutes for signal to stabilize before reading on a Spark Cyto plate reader (Tecan) with a 500 ms measurement time.
(§4) To determine compound effects on protein abundance of each target in Table 5, the percent response for each respective cell line was calculated at each compound concentration as follows:
(§5) For the normalized response at each concentration, a four-parameter logistical regression was fit to the data and the response was interpolated at the […] to determine a concentration for protein abundance at […] the untreated control.

MYB = assay: HiBiT protein abundance assay, MYB HiBiT K562 cell line; assay type: cell-based, human
Procedure: (§6) Compounds described herein were used to screen for effects on quantitative protein abundance using a HiBit assay system (Promega). Quantitative protein abundance was determined by measuring the protein levels of HiBit-tagged protein targets expressed in cell culture via luminescence using the Nano-Glo HiBiT Lytic Detection System, which uses a split complementation assay format to reconstitute NanoBiT enzyme to generate a luminescent signal. A protein abundance assay was developed such that endogenous protein targets could be modified with the HiBiT peptide tag and their abundance could be assessed after compound treatment. Briefly, K562 cell lines containing a HiBiT-modification were treated with various compounds described herein (e.g., compounds of Formulas (I), (II), (III), (IV), (V), (VI), (VII), (VIII), or (IX)). After treatment for 24 hours, the protein abundance of a specific target was determined by measuring luminescence.
as §2, §3, §4, §5

SMN2 mRNA = assay: RT-qPCR splicing assay, SMN2 canonical junction (CJ) mRNA; assay type: cell-based, human; conditions: Homo sapiens, read-out: SMN2 IC50 (decrease in CJ mRNA levels)
Method in brief: (§7)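 Canonical exon-exon junction transcript levels measured by one-step RT-qPCR of cell lysates, normalized to a housekeeping gene (GAPDH, GUSB or PPIA). Cells used were A673 or K562, exposed for 24 h to compound in 11-point, 3-fold series from 10 uM, with final DMSO at or below 0.25%.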

[2] = tested on: K562 (human chronic myelogenous leukemia) cells; assay: Cell Titer Glo 2.0 cell viability assay; assay type: cell-based; conditions: Homo sapiens, K562, 72 h, read-out: K562 GI50
HTT = assay: HiBiT protein abundance assay, HTT HiBiT K562 cell line; assay type: cell-based, human
Procedure: as §6, §2, §3, §4, §5

Target C [3] = assay: RT-qPCR splicing assay panel, Target C canonical junction (CJ) mRNA; assay type: cell-based, human; conditions: Homo sapiens, read-out: Target C IC50 (decrease in CJ mRNA levels)
Method in brief: as §7

MYB mRNA = assay: RT-qPCR splicing assay, MYB canonical junction (CJ) and alternative junction (AJ) mRNA; assay type: cell-based, human; conditions: Homo sapiens
Method in brief: as §1

[4] = decrease in HTT canonical junction (CJ) mRNA, RT-qPCR, read-out: HTT CJ IC50
[5] = increase in HTT alternative junction (AJ) mRNA, RT-qPCR, read-out: HTT AJ AC50
[6] = Table 5 panel, canonical junction qPCR, compound concentration having 50% response in CJ decrease, read-out: HTT IC50 (decrease in CJ mRNA levels)
[7] = HiBiT K562 cell line, 24 hours, top dose 10 μM
[8] = HiBiT K562 cell line, 24 hours, top dose 10 μM; read-out: Effect on protein abundance, MYB (IC50 category)
[9] = Table 5 panel, canonical junction qPCR, compound concentration having 50% response in CJ decrease
[10] = K562 cells, 72 hours, Cell Titer Glo 2.0
[11] = HiBiT K562 cell line, 24 hours, top dose 10 μM; read-out: Effect on protein abundance, HTT (IC50 category)

Row | Compound | IC50 (Target C [1]; [7]) [µM] | IC50 (MYB; [8]) [µM] | GI50 [2, 10] [µM] | IC50 (HTT; [11]) [µM] | also measured
1 | Cc1cn2nc(-c3ccc4c(=O)n(C5CCNCC5)ccc4c3)cc(CC(=O)N(C)C)c2n1 [Compound 532, N,N-dimethyl-2-[2-methyl-6-[1-oxo-2-(4-piperidyl)-6-isoquinolyl]imidazo[1,2-b]pyridazin-8-yl]acetamide] | – | – | – | – | AC50 (HTT mRNA; read-out: HTT AJ AC50 (nM)): 100 to 1000 nM; IC50 (HTT mRNA; read-out: HTT CJ IC50 (nM)): 100 to 1000 nM; IC50 (HTT mRNA; read-out: HTT IC50 (decrease in CJ mRNA levels)): 100 to 1000 nM; IC50 (Target C [1]): 0.1 to 1 µM; IC50 (MYB; read-out: Effect on protein abundance, MYB (IC50 category); HiBiT K562 cell line, 24 hours, top dose 10 μM): 0.1 to 1 µM; IC50 (SMN2 mRNA): < 0.1 µM; GI50 [2]: 0.1 to 1 µM; AC50 (MYB mRNA; read-out: MYB AJ AC50 (nM)): 100 to 1000 nM; IC50 (MYB mRNA; read-out: MYB CJ IC50 (nM)): 100 to 1000 nM; IC50 (MYB mRNA; read-out: MYB IC50 (decrease in CJ mRNA levels)): 100 to 1000 nM; IC50 (HTT; read-out: Effect on protein abundance, HTT (IC50 category); HiBiT K562 cell line, 24 hours, top dose 10 μM): 0.1 to 1 µM; IC50 (Target C [3]): 1 to 10 µM
2 | Cc1cn2cc(-c3ccc4c(=O)n(C5CCNCC5)ccc4n3)cc(F)c2n1 [Compound 1230, 2-(8-fluoro-2-methylimidazo[1,2-a]pyridin-6-yl)-6-(piperidin-4-yl)-1,6-naphthyridin-5(6H)-one] | 0.1 to 1 | < 0.1 | < 0.1 | < 0.1 | –
3 | Cc1c(O)c(-c2ccc3c(=O)n(C4CCNCC4)ccc3n2)cc2cn(C)nc12 [Compound 1234] | < 0.1 | < 0.1 | < 0.1 | < 0.1 | –
4 | Cn1cc2cc(-c3ccc4c(=O)n([C@H]5CCNC6(CC6)C5)ccc4n3)c(O)cc2n1 [Compound 1245] | < 0.1 | < 0.1 | 0.1 to 1 | < 0.1 | –
5 | Cc1c(O)c(-c2ncc3c(=O)n(C4CCC(N)C4)ccc3n2)cc2cn(C)nc12 (stereo not drawn) [Compound 1321] | 1 to 10 | 0.1 to 1 | 0.1 to 1 | 0.1 to 1 | –
6 | Cc1c(O)c(-c2ncc3c(=O)n(C45CC(N)(C4)C5)ccc3n2)cc2cn(C)nc12 [Compound 1322] | 1 to 10 | 1 to 10 | 1 to 10 | > 10 | –
7 | Cc1c(O)c(-c2ncc3c(=O)n(C4CC5CC4CN5)ccc3n2)cc2cn(C)nc12 (stereo not drawn) [Compound 1325] | 1 to 10 | 0.1 to 1 | 0.1 to 1 | 0.1 to 1 | –
8 | Cc1cn2cc(-c3ncc4c(=O)n(C5CCNCC5)c(C)cc4n3)cc(F)c2n1 [Compound 1327] | > 10 | 0.1 to 1 | 0.1 to 1 | > 10 | –
9 | Cc1c(O)c(-c2ncc3c(=O)n([C@H]4C[C@H]5CC[C@@H](C4)N5)ccc3n2)cc2cn(C)nc12 [Compound 1329] | 0.1 to 1 | < 0.1 | 0.1 to 1 | 0.1 to 1 | –

Continued, in another order:

Row | IC50 (Target C [1]; [7]) [µM] | IC50 (MYB; [8]) [µM] | GI50 [2, 10] [µM] | IC50 (HTT; [11]) [µM] | Compound | also measured
10 | > 10 | 1 to 10 | 1 to 10 | > 10 | Cc1cc(-c2ccc3c(=O)n(C4CCNCC4)c(C)nc3c2)cc2cn(C)nc12 [Compound 313] | IC50 (HTT mRNA; [4]): > 10000 nM; AC50 (HTT mRNA; [5]): > 10000 nM; IC50 (HTT mRNA; [6]): > 10000 nM; IC50 (SMN2 mRNA; [9]): 0.1 to 1 µM; IC50 (Target C [3]; [9]): > 10 µM
11 | > 10 | > 10 | > 10 | > 10 | O=c1c2c(F)cc(-c3cn[nH]c3)cc2ncn1C1CCNCC1 [Compound 321] | IC50 (HTT mRNA; [4]): > 10000 nM; AC50 (HTT mRNA; [5]): > 10000 nM; IC50 (MYB mRNA; decrease in MYB canonical junction (CJ) mRNA, RT-qPCR, read-out: MYB CJ IC50): 1000 to 10000 nM; AC50 (MYB mRNA; increase in MYB alternative junction (AJ) mRNA, RT-qPCR, read-out: MYB AJ AC50): 1000 to 10000 nM
12 | > 10 | 1 to 10 | 1 to 10 | 1 to 10 | Cc1cn2cc(-c3ccc4c(=O)n([C@H]5CCNC5)cc(C)c4c3)cc(F)c2n1 [Compound 451, (S)-6-(8-fluoro-2-methylimidazo[1,2-a]pyridin-6-yl)-4-methyl-2-(pyrrolidin-3-yl)isoquinolin-1(2H)-one] | IC50 (HTT mRNA; [6]): > 10000 nM; IC50 (SMN2 mRNA; [9]): 0.1 to 1 µM; IC50 (MYB mRNA; Table 5 panel, canonical junction qPCR, compound concentration having 50% response in CJ decrease, read-out: MYB IC50 (decrease in CJ mRNA levels)): 1000 to 10000 nM; IC50 (Target C [3]; [9]): > 10 µM
13 | < 0.1 | < 0.1 | < 0.1 | < 0.1 | Cn1cc2cc(-c3ccc4c(=O)n(C5CCNCC5)ccc4n3)c(O)c(F)c2n1 [Compound 1226] | –
14 | < 0.1 | < 0.1 | < 0.1 | < 0.1 | Cc1nc2cc(O)c(-c3ccc4c(=O)n(C5CCNCC5)ccc4n3)cc2o1 [Compound 1237] | –
15 | < 0.1 | < 0.1 | < 0.1 | < 0.1 | Cn1cc2cc(-c3ccc4c(=O)n(C5CCNCC5)ccc4n3)c(O)cc2n1 [Compound 1239, 2-(6-hydroxy-2-methyl-2H-indazol-5-yl)-6-(piperidin-4-yl)-1,6-naphthyridin-5(6H)-one] | –
16 | 0.1 to 1 | < 0.1 | < 0.1 | 0.1 to 1 | Cc1c(O)c(-c2ncc3c(=O)n(C4CCNC(C)C4)ccc3n2)cc2cn(C)nc12 (stereo not drawn) [Compound 1320] | –
17 | > 10 | < 0.1 | < 0.1 | 1 to 10 | Cc1c(O)c(-c2ncc3c(=O)n(C45CCC(N)(CC4)CC5)ccc3n2)cc2cn(C)nc12 [Compound 1323] | –
18 | 1 to 10 | 0.1 to 1 | 0.1 to 1 | 1 to 10 | Cc1c(O)c(-c2ncc3c(=O)n(C45CCC(N)(C4)C5)ccc3n2)cc2cn(C)nc12 [Compound 1324] | –
19 | 0.1 to 1 | < 0.1 | 0.1 to 1 | 0.1 to 1 | Cc1c(O)c(-c2ncc3c(=O)n([C@H]4[C@@H]5CNC[C@@H]54)ccc3n2)cc2cn(C)nc12 [Compound 1326] | –
20 | 1 to 10 | 0.1 to 1 | 0.1 to 1 | 0.1 to 1 | Cc1c(O)c(-c2ncc3c(=O)n([C@@H]4CC[C@H](N)C4)ccc3n2)cc2cn(C)nc12 [Compound 1333] | –
21 | 1 to 10 | 0.1 to 1 | 0.1 to 1 | 0.1 to 1 | Cc1c(O)c(-c2ncc3c(=O)n([C@H]4CC[C@H](N)C4)ccc3n2)cc2cn(C)nc12 [Compound 1334] | –
